Test results published in patent publication US20240246942A1, “KINASE INHIBITORS FOR THE TREATMENT OF NEURODEGENERATIVE DISEASES” (priority 2020, published 2024).

Assays:
Experiment in all cases: biochemical
[1] = target: T1, panel of 374 wild-type kinases (Homo sapiens, UniProt Q9P289); details: read-out: % Enzyme Activity (relative to DMSO controls), MST4
T1 construct: purchased Reaction Biology Corporation

[2] = target: T2, panel of 374 wild-type kinases (Homo sapiens, UniProt P36894); details: read-out: % Enzyme Activity (relative to DMSO controls), ALK3/BMPR1A
T2 construct: purchased Reaction Biology Corporation
T2 sequence (P36894 24-532): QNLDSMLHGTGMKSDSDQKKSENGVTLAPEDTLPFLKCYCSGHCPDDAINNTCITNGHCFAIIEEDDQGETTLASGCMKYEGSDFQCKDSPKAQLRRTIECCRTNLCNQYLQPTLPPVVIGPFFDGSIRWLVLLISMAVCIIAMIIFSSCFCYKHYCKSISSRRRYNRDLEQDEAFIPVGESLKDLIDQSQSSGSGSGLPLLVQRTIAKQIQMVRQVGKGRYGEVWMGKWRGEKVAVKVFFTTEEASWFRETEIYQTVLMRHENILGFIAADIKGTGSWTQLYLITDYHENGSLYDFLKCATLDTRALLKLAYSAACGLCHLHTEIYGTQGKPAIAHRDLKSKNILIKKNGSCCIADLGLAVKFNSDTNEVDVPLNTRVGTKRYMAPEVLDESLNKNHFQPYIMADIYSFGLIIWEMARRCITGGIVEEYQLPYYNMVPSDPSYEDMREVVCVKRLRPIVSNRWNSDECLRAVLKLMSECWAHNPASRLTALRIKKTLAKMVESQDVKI

[3] = target: T3, panel of 374 wild-type kinases (Homo sapiens, UniProt Q96S53); details: read-out: % Enzyme Activity (relative to DMSO controls), kinase TESK2
T3 construct: purchased Reaction Biology Corporation

[4] = target: T4, panel of 374 wild-type kinases (Homo sapiens, UniProt Q96RR4); details: read-out: % Enzyme Activity (relative to DMSO controls), CAMKK2
T4 construct: purchased Reaction Biology Corporation

[5] = target: T5, panel of 374 wild-type kinases (Homo sapiens, UniProt P07333); details: read-out: % Enzyme Activity (relative to DMSO controls), FMS
T5 construct: purchased Reaction Biology Corporation
T5 sequence (P07333 20-972): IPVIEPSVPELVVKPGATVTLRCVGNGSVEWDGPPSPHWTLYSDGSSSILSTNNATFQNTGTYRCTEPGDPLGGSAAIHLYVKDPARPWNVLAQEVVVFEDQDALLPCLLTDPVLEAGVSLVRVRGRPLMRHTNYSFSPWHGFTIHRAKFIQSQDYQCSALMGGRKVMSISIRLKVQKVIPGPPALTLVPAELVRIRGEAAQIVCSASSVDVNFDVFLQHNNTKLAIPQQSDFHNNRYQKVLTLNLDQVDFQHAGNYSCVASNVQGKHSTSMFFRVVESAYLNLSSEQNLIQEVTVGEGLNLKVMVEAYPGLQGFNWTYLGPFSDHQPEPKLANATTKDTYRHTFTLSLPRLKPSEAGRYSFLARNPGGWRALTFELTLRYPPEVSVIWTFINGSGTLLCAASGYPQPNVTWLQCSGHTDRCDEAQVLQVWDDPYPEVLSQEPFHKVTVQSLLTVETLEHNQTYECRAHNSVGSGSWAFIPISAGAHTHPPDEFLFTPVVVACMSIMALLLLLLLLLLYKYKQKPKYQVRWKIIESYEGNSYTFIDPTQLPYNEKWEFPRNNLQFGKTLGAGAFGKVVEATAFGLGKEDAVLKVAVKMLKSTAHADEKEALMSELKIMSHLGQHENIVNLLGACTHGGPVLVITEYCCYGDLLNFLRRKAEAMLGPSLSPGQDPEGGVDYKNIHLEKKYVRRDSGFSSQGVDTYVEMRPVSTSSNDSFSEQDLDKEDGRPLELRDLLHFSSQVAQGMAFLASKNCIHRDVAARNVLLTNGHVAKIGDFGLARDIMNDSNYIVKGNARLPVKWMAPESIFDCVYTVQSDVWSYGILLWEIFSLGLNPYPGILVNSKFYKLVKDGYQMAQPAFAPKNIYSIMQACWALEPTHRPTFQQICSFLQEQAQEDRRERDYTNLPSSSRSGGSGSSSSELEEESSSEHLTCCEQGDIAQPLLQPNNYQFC

[6] = target: T6, panel of 374 wild-type kinases (Homo sapiens, UniProt O75582); details: read-out: % Enzyme Activity (relative to DMSO controls), MSK1/RPS6KA5
T6 construct: purchased Reaction Biology Corporation
T6 sequence (O75582 whole entry): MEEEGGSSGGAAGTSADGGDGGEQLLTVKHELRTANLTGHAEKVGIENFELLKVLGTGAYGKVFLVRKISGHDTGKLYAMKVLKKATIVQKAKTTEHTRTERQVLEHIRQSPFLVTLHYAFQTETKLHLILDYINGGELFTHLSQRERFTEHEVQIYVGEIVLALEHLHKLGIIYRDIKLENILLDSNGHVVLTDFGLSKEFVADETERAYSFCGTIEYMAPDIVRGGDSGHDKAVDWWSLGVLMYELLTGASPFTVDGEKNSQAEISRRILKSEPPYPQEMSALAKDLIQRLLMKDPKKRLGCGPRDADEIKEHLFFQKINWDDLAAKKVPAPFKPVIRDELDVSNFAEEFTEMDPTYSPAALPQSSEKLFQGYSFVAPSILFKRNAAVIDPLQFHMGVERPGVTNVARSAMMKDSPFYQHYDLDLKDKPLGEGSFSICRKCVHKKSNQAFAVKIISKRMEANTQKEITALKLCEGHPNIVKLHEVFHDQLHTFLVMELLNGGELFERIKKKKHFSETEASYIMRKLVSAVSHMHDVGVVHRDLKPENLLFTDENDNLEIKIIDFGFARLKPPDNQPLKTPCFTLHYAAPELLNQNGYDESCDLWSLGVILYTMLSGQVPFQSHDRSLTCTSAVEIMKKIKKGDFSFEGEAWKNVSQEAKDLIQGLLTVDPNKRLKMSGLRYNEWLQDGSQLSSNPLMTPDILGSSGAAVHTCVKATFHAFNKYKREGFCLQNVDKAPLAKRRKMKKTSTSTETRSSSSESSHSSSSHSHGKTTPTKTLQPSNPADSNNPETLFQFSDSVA

[7] = target: T7, panel of 374 wild-type kinases (Homo sapiens, UniProt P20794); details: read-out: % Enzyme Activity (relative to DMSO controls), MAK
T7 construct: purchased Reaction Biology Corporation
T7 sequence (P20794 1-623): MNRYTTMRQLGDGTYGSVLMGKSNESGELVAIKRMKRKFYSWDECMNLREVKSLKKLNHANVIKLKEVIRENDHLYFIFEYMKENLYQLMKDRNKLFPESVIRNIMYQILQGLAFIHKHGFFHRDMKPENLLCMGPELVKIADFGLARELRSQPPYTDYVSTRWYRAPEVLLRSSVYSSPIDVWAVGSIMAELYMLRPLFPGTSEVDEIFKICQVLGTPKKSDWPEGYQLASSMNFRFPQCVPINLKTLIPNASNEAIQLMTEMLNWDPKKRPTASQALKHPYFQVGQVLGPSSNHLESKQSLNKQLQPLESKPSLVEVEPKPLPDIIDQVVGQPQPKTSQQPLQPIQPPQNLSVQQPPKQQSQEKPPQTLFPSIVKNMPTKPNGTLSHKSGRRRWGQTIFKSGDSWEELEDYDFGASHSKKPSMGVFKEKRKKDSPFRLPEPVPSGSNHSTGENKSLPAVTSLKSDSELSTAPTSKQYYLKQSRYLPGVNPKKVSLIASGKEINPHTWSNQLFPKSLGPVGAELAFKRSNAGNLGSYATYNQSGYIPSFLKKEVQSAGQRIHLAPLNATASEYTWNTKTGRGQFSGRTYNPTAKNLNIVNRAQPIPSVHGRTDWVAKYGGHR

[8] = target: T8, panel of 374 wild-type kinases (Homo sapiens, UniProt Q9H2G2); details: read-out: % Enzyme Activity (relative to DMSO controls), kinase SLK/STK2
T8 construct: purchased Reaction Biology Corporation
T8 sequence (Q9H2G2 whole entry): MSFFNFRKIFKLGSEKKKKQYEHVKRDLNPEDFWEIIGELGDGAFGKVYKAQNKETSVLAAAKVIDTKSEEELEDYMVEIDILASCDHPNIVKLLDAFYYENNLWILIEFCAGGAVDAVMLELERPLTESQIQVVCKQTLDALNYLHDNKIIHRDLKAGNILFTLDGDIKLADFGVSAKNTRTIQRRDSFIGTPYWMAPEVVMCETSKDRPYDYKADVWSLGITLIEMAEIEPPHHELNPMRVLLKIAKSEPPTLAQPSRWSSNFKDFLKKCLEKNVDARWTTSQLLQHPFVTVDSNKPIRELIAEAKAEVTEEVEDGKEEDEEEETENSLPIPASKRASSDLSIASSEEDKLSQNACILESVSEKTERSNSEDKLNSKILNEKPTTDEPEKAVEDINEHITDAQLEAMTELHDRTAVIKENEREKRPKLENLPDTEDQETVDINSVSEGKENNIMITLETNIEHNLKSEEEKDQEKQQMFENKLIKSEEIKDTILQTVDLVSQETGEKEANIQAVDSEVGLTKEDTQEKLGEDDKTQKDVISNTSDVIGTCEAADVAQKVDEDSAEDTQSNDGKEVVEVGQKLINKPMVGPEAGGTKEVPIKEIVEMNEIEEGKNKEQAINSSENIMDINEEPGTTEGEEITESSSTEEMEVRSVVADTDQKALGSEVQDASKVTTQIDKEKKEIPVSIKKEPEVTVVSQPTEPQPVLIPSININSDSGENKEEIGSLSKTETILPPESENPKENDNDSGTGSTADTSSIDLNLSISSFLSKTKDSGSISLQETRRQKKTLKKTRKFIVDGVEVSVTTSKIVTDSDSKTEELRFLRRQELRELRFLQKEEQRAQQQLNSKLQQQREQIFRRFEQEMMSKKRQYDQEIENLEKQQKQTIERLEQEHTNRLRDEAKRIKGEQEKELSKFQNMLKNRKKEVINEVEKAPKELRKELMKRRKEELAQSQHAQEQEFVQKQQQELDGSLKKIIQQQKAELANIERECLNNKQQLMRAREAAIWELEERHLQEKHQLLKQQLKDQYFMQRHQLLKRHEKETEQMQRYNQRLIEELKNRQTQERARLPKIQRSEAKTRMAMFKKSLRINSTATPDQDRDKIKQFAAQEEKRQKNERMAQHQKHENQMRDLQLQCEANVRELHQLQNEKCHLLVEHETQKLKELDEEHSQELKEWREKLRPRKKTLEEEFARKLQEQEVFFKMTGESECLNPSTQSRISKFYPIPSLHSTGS

[9] = target: T9, panel of 374 wild-type kinases (Homo sapiens, UniProt P48730); details: read-out: % Enzyme Activity (relative to DMSO controls), CK1d
T9 construct: purchased Reaction Biology Corporation
T9 sequence (P48730 whole entry): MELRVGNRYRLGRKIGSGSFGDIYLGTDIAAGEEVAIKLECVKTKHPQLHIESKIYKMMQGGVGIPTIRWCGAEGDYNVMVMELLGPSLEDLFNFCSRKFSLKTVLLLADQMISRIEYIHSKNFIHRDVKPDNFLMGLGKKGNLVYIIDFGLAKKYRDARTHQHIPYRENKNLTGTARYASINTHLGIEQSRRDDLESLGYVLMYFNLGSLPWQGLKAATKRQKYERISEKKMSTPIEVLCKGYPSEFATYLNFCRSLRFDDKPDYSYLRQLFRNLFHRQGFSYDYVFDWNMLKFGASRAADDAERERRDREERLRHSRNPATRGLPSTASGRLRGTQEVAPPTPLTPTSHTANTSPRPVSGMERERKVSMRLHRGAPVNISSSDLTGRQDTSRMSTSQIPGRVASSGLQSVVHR

[10] = target: T10, panel of 374 wild-type kinases (Homo sapiens, UniProt P54760); details: read-out: % Enzyme Activity (relative to DMSO controls), EPHB4
T10 construct: purchased Reaction Biology Corporation
T10 sequence (P54760 16-987): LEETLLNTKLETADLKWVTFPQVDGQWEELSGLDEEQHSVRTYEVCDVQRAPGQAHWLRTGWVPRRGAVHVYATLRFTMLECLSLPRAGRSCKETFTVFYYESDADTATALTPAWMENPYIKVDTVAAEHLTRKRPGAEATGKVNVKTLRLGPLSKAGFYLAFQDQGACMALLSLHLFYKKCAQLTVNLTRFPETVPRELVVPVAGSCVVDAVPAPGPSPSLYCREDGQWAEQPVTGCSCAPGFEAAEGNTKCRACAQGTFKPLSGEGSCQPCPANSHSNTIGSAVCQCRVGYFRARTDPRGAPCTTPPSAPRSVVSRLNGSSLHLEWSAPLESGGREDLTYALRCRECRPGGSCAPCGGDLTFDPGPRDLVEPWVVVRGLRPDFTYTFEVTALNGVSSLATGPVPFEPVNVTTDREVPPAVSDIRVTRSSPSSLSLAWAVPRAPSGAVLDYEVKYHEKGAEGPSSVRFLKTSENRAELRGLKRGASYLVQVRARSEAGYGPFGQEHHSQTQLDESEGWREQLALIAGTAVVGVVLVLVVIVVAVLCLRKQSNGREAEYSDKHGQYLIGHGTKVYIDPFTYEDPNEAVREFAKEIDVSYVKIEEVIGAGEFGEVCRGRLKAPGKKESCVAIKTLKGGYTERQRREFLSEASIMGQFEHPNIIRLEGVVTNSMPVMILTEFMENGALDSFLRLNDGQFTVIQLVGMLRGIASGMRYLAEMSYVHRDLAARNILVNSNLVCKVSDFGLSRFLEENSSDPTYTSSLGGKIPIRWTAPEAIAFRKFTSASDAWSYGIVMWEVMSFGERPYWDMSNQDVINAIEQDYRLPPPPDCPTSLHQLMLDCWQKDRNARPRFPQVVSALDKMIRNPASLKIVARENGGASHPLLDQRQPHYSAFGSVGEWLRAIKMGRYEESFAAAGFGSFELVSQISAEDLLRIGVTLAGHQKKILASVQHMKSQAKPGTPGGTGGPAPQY

[11] = target: T11, panel of 374 wild-type kinases (Homo sapiens, UniProt Q02779); details: read-out: % Enzyme Activity (relative to DMSO controls), MLK2/MAP3K10
T11 construct: purchased Reaction Biology Corporation
T11 sequence (Q02779 whole entry): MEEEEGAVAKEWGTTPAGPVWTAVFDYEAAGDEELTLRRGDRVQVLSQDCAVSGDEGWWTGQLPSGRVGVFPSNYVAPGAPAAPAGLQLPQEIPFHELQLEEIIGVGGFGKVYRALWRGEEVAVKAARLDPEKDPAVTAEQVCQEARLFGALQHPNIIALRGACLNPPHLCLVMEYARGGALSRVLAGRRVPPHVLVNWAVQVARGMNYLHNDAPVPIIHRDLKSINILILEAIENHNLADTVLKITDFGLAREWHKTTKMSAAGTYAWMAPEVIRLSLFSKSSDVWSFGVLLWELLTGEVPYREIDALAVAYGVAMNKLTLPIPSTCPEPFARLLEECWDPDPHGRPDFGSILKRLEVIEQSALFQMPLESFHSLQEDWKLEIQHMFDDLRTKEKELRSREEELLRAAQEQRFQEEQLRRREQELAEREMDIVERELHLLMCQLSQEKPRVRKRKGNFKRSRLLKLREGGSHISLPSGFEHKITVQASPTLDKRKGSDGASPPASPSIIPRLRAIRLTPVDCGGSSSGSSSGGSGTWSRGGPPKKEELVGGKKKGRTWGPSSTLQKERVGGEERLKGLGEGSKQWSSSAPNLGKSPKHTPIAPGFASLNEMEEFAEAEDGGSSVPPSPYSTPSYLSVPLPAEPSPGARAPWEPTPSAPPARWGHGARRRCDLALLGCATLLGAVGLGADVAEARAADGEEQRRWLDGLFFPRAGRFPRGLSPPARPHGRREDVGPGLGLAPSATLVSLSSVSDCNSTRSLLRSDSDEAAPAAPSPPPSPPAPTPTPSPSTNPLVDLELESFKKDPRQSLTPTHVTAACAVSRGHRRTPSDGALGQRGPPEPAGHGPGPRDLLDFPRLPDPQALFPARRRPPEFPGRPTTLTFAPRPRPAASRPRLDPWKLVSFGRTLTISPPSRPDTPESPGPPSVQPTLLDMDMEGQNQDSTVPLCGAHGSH

O=C(Nc1cnn(-c2csc(C(=O)NC3COC3)c2)c1)Nc1ccccc1Cl [Compound 17, 4-(4-(3-(2-chlorophenyl)ureido)-1H-pyrazol-1-yl)-N-(oxetan-3-yl)thiophene-2-carboxamide]
remaining activity at 5 µM [1]: 98.3% | remaining activity at 5 µM [2]: 105% | remaining activity at 5 µM [3]: 93.3% | remaining activity at 5 µM [4]: 91.1% | remaining activity at 5 µM [5]: 105% | remaining activity at 5 µM [6]: 89.5% | remaining activity at 5 µM [7]: 98.8% | remaining activity at 5 µM [8]: 89.7% | remaining activity at 5 µM [9]: 101% | remaining activity at 5 µM [10]: 97.8% | remaining activity at 5 µM [11]: 98.5%

Cc1sc(C(=O)NC2COC2)cc1-n1cc(NC(=O)Nc2c(F)cccc2Cl)cn1 [Compound 27, 4-(4-(3-(2-chloro-6-fluorophenyl)ureido)-1H-pyrazol-1-yl)-5-methyl-N-(oxetan-3-yl)thiophene-2-carboxamide]
remaining activity at 10 µM ([1]; 10 uM): 72.4% | remaining activity at 10 µM ([2]; 10 uM): 92.5% | remaining activity at 10 µM ([3]; 10 uM): 99.2% | remaining activity at 10 µM ([4]; 10 uM): 111% | remaining activity at 10 µM ([5]; 10 uM): 103% | remaining activity at 10 µM ([6]; 10 uM): 111% | remaining activity at 10 µM ([7]; 10 uM): 120% | remaining activity at 10 µM ([8]; 10 uM): 99.7% | remaining activity at 10 µM ([9]; 10 uM): 112% | remaining activity at 10 µM ([10]; 10 uM): 93.7% | remaining activity at 10 µM ([11]; 10 uM): 90.8%

O=C(Nc1cnn(-c2csc(C(=O)NC3COC3)c2)c1)Nc1c(F)cccc1Cl [Compound 25, 4-(4-(3-(2-chloro-6-fluorophenyl)ureido)-1H-pyrazol-1-yl)-N-(oxetan-3-yl)thiophene-2-carboxamide]
remaining activity at 5 µM [1]: 71.4% | remaining activity at 5 µM [2]: 103% | remaining activity at 5 µM [3]: 80.1% | remaining activity at 5 µM [4]: 81% | remaining activity at 5 µM [5]: 98.9% | remaining activity at 5 µM [6]: 104% | remaining activity at 5 µM [7]: 97.6% | remaining activity at 5 µM [8]: 95% | remaining activity at 5 µM [9]: 117% | remaining activity at 5 µM [10]: 98.1% | remaining activity at 5 µM [11]: 94.3%
